Earlier results, collected in patent US7670624B2, “Gastrointestinal-specific multiple drug release system” (Astella Pharma Inc., priority 2004, dated 2010).
Counter-ions that a name gives are not always drawn.

Conditions: in vivo

Structure (SMILES) | t1/2
NC(N)=Nc1nc(CSCCC(N)=NS(N)(=O)=O)cs1 [Famotidine] | 3 h
CN(C)c1ccc(O)c2c1C[C@H]1C[C@H]3[C@H](N(C)C)C(O)=C(C(N)=O)C(=O)[C@@]3(O)C(O)=C1C2=O [Minocycline hydrochloride] | 9.5 h
